Values of other authors, collected in the CATMoS acute toxicity set (Mansouri et al. 2021).
Values joined by “and” are separate entries in the source; they are usually repeats but may differ in a detail not shown here. Identical values can stand only once.

assay: rat acute oral toxicity; details: in vivo

Question: With `COc1ccc(C)cc1N` as the molecule, how does the LD50 read?
Answer: 1450 mg/kg

Question: With `COc1ccnc(CS(=O)c2nc3cc(OC(F)F)ccc3[nH]2)c1OC` (stereo not given) as the molecule, how does the LD50 read?
Answer: 747 mg/kg

Question: Which LD50 does the source give for `c1ccc2c(c1)Sc1ccccc1N2CCCN1CCOCC1` here?
Answer: 1000 mg/kg

Question: With `NCCC[C@H](N)C(=O)O` as the molecule, how does the LD50 read?
Answer: 10000 mg/kg

Question: For `CCCCNc1ccc2c(c1)C(=O)N(CCN(CC)CC)C2=O`, which LD50 is on record?
Answer: 580 mg/kg

Question: Which LD50 does the source give for `CN(C)CC[C@@H](c1ccc(Br)cc1)c1ccccn1` here?
Answer: 191 mg/kg

Question: Which LD50 does the source give for `CC1(C)CC(=O)C(N)C(C)(C)N1` (stereo not given) here?
Answer: 920 mg/kg

Question: Which LD50 does the source give for `CCOC(=S)C=Cc1ccc(OC)c(OC)c1` here?
Answer: 980 mg/kg

Question: With `CN(C)C1CCc2ccccc2C(Oc2ccc([N+](=O)[O-])cc2)C1` (stereo not given) as the molecule, how does the LD50 read?
Answer: 534 mg/kg

Question: Which LD50 does the source give for `CCOC(=O)c1ccc([N+](=O)[O-])cc1` here?
Answer: 2660 mg/kg

Question: Which LD50 does the source give for `Cc1ccc(C2=CCN(CC=Cc3ccc4c(c3)CCC(=O)N4)CC2)cc1` here?
Answer: 500 mg/kg

Question: For `O=CN(c1ncnc2c1ncn2CC1CC1)C1CC1`, which LD50 is on record?
Answer: 500 mg/kg

Question: Which LD50 does the source give for `O=[N+]([O-])c1ccc(OP(=O)(CCl)c2ccccc2)cc1` (stereo not given) here?
Answer: 203 mg/kg

Question: Which LD50 does the source give for `CCOC(C1=NCCCCN1)c1ccc(Cl)cc1` (stereo not given) here?
Answer: 370 mg/kg

Question: For `CN(N=O)C(N)=O`, which LD50 is on record?
Answer: 110 mg/kg

Question: Which LD50 does the source give for `N=C(N)SCc1ccc([N+](=O)[O-])cc1` here?
Answer: 300 mg/kg

Question: For `CC(=O)OC(C)(C)CCc1ccccc1`, which LD50 is on record?
Answer: 4850 mg/kg

Question: With `CNC(=O)Oc1ccccc1CCCSC` as the molecule, how does the LD50 read?
Answer: 220 mg/kg

Question: For `CC(C)(C)NCC(O)c1ccc(O)c(CO)n1` (stereo not given), which LD50 is on record?
Answer: 2800 mg/kg

Question: Which LD50 does the source give for `CSCCC(O)C#N` (stereo not given) here?
Answer: 48 mg/kg

Question: Which LD50 does the source give for `OCC1COC(c2ccccc2)O1` (stereo not given) here?
Answer: 3150 mg/kg

Question: Which LD50 does the source give for `CN(C)C(O)=Nc1ccc(-n2nc(C(C)(C)C)oc2=O)c(Cl)c1` here?
Answer: 1000 mg/kg

Question: Which LD50 does the source give for `CCCCOC(C1=NCCCN1)c1ccccc1` (stereo not given) here?
Answer: 310 mg/kg

Question: For `CCOP(=O)(OCC)Oc1ccc2c(C)c(Cl)c(=O)oc2c1`, which LD50 is on record?
Answer: 10 mg/kg

Question: With `Cc1cc(=O)[nH]o1` as the molecule, how does the LD50 read?
Answer: 3110 mg/kg

Question: Which LD50 does the source give for `CNC(=O)O/N=C(\C)C(C)S(C)(=O)=O` (stereo not given) here?
Answer: 458 mg/kg

Question: Which LD50 does the source give for `C[C@H]1OC(O[C@H]2[C@@H](O)CC(O[C@H]3[C@@H](O)CC(O[C@H]4CC[C@@]5(C)[C@H](CC[C@@H]6[C@@H]5CC[C@]5(C)[C@@H](C7=CC(=O)OC7)[C@@H](OC=O)C[C@]65O)C4)O[C@@H]3C)O[C@@H]2C)C[C@H](O)[C@@H]1O` (stereo not given in full) here?
Answer: 30 mg/kg

Question: With `CC1=CC[C@@H]2C[C@@H](C[C@]3(CC[C@H](C)[C@@H](C)O3)O2)OC(=O)[C@@H]2C=C(C)[C@@H](O)[C@H]3OCC(=CC=C[C@H](C)C1)[C@]32O` as the molecule, how does the LD50 read?
Answer: 456 mg/kg

Question: Which LD50 does the source give for `Cn1c([N+](=O)[O-])cnc1/C=C/c1ccnc(N)n1` here?
Answer: 7600 mg/kg

Question: For `O=C1[C@H]2CCCC[C@H]2C(=O)N1CCCCN1CCN(c2nsc3ccccc23)CC1`, which LD50 is on record?
Answer: 870 mg/kg

Question: With `CCC(C)CC(CC)Nc1ccc(NC(CC)CC(C)CC)cc1` (stereo not given) as the molecule, how does the LD50 read?
Answer: 2400 mg/kg

Question: For `O=S(=O)(c1ccc(Cl)cc1)c1cc(Cl)c(Cl)cc1Cl`, which LD50 is on record?
Answer: 566 mg/kg

Question: With `CCCCCCCCC=CCCCCCCCC(=O)OCC1CO1` (stereo not given) as the molecule, how does the LD50 read?
Answer: 3520 mg/kg

Question: With `COc1ccccc1-c1ccccc1` as the molecule, how does the LD50 read?
Answer: 3600 mg/kg

Question: For `CCCCC(CC)COC(=O)CCCCCCCCCCC(=O)OCC(CC)CCCC` (stereo not given), which LD50 is on record?
Answer: 21500 mg/kg

Question: Which LD50 does the source give for `CCCCOC(=O)CC(C(=O)OCCCC)P(=O)(OCCCC)OCCCC` (stereo not given) here?
Answer: 25000 mg/kg

Question: For `CC1=C(C(=O)OCCN2CCN(C(c3ccccc3)c3ccccc3)CC2)C(c2cccc([N+](=O)[O-])c2)C(P2(=O)OCC(C)(C)CO2)=C(C)N1` (stereo not given), which LD50 is on record?
Answer: 194 mg/kg

Question: For `Cc1cc(C(=O)c2ccccc2)ccc1N=Cc1cccc(OCCC(C)C)c1`, which LD50 is on record?
Answer: 2100 mg/kg

Question: Which LD50 does the source give for `C=CCn1c(=O)c2[nH]c(C)nc2n(CC(C)C)c1=O` here?
Answer: 17 mg/kg

Question: With `O=C(Cl)OCc1ccccc1` as the molecule, how does the LD50 read?
Answer: 3000 mg/kg

Question: For `CCCCCCCCN`, which LD50 is on record?
Answer: 315 mg/kg

Question: Which LD50 does the source give for `CCO[Si](CCl)(OCC)OCC` here?
Answer: 2400 mg/kg

Question: With `CC/C=C\CCOCC=O` as the molecule, how does the LD50 read?
Answer: 4100 mg/kg

Question: For `CC(=O)Nc1ccncc1`, which LD50 is on record?
Answer: 446 mg/kg

Question: For `O=C(OCC(O)CO)c1ccccc1Nc1ccnc2cc(Cl)ccc12` (stereo not given), which LD50 is on record?
Answer: 2300 mg/kg

Question: With `c1ccsc1` as the molecule, how does the LD50 read?
Answer: 1400 mg/kg

Question: For `CC[P+](c1ccccc1)(c1ccccc1)c1ccccc1`, which LD50 is on record?
Answer: 200 mg/kg and 79 mg/kg

Question: Which LD50 does the source give for `CC/C(=C(\c1ccccc1)c1ccc(OCCN(C)C)cc1)c1ccccc1` here?
Answer: 4100 mg/kg

Question: Which LD50 does the source give for `c1ccc(N=Nc2ccccc2)cc1` here?
Answer: 1000 mg/kg

Question: Which LD50 does the source give for `C=CCSP(=O)(NC(=O)CC)OC` (stereo not given) here?
Answer: 125 mg/kg
